Test results published in patent US20230087609A1, “USE OF A SOLUBLE GUANYLATE CYCLASE (sGC) STIMULATOR OR OF A COMBINATION OF A sGC STIMULATOR AND AN sGC ACTIVATOR FOR CONDITIONS WHEREIN THE HEME GROUP OF sGC IS OXIDIZED OR WHEREIN sGC IS DEFICIENT IN HEME” (Universiteit Maastricht, priority 2020, published 2023).
“Also recorded” adds a separate entry of the source.

Key:
[1] = tested on: isolated rat mesenteric arteries; experiment: Relaxation of isolated rat mesenteric arteries (myograph)
Source text: The animals were killed humanely via CO2 inhalation (95% CO2, 5% O2) followed by cervical dislocation and exsanguination. The required tissues were dissected and placed in ice-cold oxygenated Krebs' solution (composition in mM: NaCl 119, KCl 4.7, MgSO4 1.17, NaHCO3 25, KH2PO4 1.18, CaCl2 2.5, glucose 5.5, EDTA 0.026, pH 7.4). The collected arteries were carefully freed of fat and connective tissue and cut into 2 mm rings.
The segments were then mounted in a small vessel myograph for the measurement of changes in isometric tension. Two 40 μm stainless steel wires were inserted through the lumen of the segment, one attached to an isometric force transducer and the other to a support driven by a micrometer. The vessels were maintained in Krebs' solution at 37° C. in 7 ml myograph chambers and were continuously bubbled with carbogen (95% O2, 5% CO2). Arteries were allowed to equilibrate for a 30 min period under zero force after which their internal diameter was normalised to an equivalent transmural pressure of 100 mmHg. Changes in isometric tension were reordered using a Myograph Interface Model 610 M version 2.2 (AD Instruments, Pty Ltd) and a chart recorder (Yokogawa, Japan), or using a MacLab® (MacLab® data-acquisition system, AD Instruments Pty Ltd.), interfaced with a Macintosh Computer. Following the 30 min equilibration period at optimal resting tension, the vessels were contracted maximally using a potassium depolarising KPSS solution (composition in mM: KCl 123, MgSO4 1.17, KH2PO4 2.37, CaCl2 2.5, glucose, 5.5 and EDTA 0.026). After the maximum contraction reached a plateau, the vessels were washed thoroughly using Krebs' solution and the tension allowed to return to the baseline. The vessels were then pre-contracted to ≈50% maximum contraction using titrated concentration of the thromboxane A2 mimetic U46619 (0.1-100 nM) and a titrated concentration of the al agonist cirazoline (1-100 nM). Subsequently, cumulative (0.5 log unit) concentration response curve to BAY 58-2667 (1 pM-0.1 μM) were constructed in the presence and absence of 100nM BAY 41-2272 (100 nM). All treatments used in our study including the pre-incubation with 10 μM ODQ for 30 min were added before the 50% pre-contraction with cirazoline and U46619 and only one concentration response curve to any vasodilator was constructed in each segment of the blood vessel. At the completion of each concentration response curve, maximal relaxation was achieved by adding nifedipine 10 μM.
Results are expressed as mean±s.e.m, with n representing the number of samples used from separate subjects. Statistical significance was accepted at the P<0.05 level. Relaxation responses to BAY58-2667 were expressed as a percentage reversal of the level of pre-contraction to U46619, with the response to nifedipine 10 μM defined as 100% relaxation. The individual response curves obtained for each vasodilator were fitted using non-linear regressions (Graphpad Prism®, version 5). In-vitro experiments have been performed with n=3 and n=1. Maximal relaxation values (%) at specific concentrations of the compounds were compared. For multiple comparisons, student's t-test or one-way analysis of variance (ANOVA) was followed by Bonferroni's test. • The results of our experiments are represented by the following non-limiting examples.

[2] = target: T1, apo-sGC (sGCβ1 H105F knock-in) (Mus musculus, UniProt O54865, H105F); experiment: sGC activity in lung homogenates of apo-sGC mice; format: biochemical
T1 construct: from tissue; host or cells: lung homogenate of homozygous sGCβ1 H105F knock-in mice
T1 sequence (O54865 1-620 H105F): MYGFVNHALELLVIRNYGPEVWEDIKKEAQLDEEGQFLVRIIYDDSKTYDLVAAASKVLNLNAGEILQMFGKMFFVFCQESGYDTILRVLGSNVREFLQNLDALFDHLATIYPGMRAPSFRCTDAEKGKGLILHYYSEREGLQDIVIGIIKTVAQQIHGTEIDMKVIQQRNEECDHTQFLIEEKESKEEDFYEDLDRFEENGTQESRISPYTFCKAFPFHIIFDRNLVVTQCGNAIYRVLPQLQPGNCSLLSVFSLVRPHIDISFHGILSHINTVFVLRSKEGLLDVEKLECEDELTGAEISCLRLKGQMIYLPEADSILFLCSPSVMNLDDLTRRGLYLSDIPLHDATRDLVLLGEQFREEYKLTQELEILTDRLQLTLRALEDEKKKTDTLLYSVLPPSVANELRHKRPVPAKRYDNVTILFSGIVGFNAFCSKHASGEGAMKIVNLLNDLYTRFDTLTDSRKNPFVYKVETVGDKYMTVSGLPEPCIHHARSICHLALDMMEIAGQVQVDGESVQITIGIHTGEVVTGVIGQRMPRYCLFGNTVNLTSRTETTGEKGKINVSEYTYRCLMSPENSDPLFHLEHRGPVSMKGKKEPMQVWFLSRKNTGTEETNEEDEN
T1 sequence (Q9ERL9 1-691 partner): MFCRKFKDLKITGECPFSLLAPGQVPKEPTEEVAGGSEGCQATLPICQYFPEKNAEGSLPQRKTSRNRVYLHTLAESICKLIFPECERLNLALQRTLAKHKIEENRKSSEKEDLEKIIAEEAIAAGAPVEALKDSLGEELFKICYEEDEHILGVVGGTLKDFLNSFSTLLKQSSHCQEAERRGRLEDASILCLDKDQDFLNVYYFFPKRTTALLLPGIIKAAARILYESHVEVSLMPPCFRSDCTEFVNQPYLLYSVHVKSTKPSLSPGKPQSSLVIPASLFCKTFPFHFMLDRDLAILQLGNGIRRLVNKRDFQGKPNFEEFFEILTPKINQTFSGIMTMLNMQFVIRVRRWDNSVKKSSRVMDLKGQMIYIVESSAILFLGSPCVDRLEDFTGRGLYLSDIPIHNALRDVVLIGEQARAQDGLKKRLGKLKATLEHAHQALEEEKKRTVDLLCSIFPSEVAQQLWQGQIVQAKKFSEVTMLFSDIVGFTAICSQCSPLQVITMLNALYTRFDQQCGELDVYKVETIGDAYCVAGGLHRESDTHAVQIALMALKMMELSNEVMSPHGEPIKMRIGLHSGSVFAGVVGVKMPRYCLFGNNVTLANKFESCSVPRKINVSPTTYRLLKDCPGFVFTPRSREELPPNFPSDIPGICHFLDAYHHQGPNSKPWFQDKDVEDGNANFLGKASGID
Procedure: Adult male Sprague Dawley (SD) rats (age, 10-12 weeks) were obtained from Animal Resources Centre (Western Australia). Animals were housed on a 12 hour day/night cycle at a room temperature of 20±2° C., in the Department of Pharmacology Animal House, Monash University. The animals were fed standard rodent chow and water was available ad libitum. Homozygous male sGC(1^H105F knock-in mice (“apo-sGC mice”) were kindly provided by Tufts Medical Center, Molecular Cardiology Research Center, Boston, Mass., USA (Toonen et al., Nat Commun. 2015; 6:8482. doi: 10.1038/ncomms9482).
To measure sGC activity, cells were stimulated with 250 μM DEA/NO or 10 μM BAY58-2667 for 3 min at 37° C. Thereafter, cells were immediately lysed in 80% ethanol. Cells were scraped and, after evaporation of ethanol, re-suspended in assay buffer and sonicated. Measurement of sGC activity in crude homogenates of mouse tissue was performed as previously described (Nedvetsky et al., Brain Res. 2002; 950(1-2):148-154. doi: 10.1016/50006-8993(02)03015-9).[9] Briefly, all samples were measured as the formation of cGMP at 37° C. during 10 min in a total incubation volume of […] containing 50 mM triethanolamine-HCl (pH 7.4), 3 mM MgCl2, 3 mM glutathione (Carl Roth, Karlsruhe, Germany), 1 mM IBMX, […], 5 mM creatine phosphate, 0.25 mg/ml creatine kinase and 1 mM or 0.5 mM GTP. After adding sGC activator in the absence or presence of the sGC stimulator the reaction was started by application of GTP solution. Following incubation of each sample for 10 min the reaction was stopped by boiling for 10 min at 95° C. Thereafter the amount of cGMP was subsequently determined by a commercial enzyme immunoassay kit (Enzo Life Sciences, Lorrach, Germany or Biotrend, Cologne, Germany). In some experiments pre-incubation of freshly homogenized tissue with ODQ at 37° C. for 20 min prior measuring sGC activation was required.

[3] = target: T2, human sGCa1 and mutant sGCβ1H105F (apo-sGC) in Sf9 cells (Homo sapiens, UniProt Q02153, H105F); experiment: cGMP accumulation in intact Sf9 cells expressing apo-sGC; format: cell-based; conditions: 10 micromole/L DETA-NONOate alone (FIG. 12A)
T2 construct: His tag; expressed in transfected cells; host or cells: Sf9 cells co-infected with baculoviruses
T2 sequence (Q02153 1-619 H105F): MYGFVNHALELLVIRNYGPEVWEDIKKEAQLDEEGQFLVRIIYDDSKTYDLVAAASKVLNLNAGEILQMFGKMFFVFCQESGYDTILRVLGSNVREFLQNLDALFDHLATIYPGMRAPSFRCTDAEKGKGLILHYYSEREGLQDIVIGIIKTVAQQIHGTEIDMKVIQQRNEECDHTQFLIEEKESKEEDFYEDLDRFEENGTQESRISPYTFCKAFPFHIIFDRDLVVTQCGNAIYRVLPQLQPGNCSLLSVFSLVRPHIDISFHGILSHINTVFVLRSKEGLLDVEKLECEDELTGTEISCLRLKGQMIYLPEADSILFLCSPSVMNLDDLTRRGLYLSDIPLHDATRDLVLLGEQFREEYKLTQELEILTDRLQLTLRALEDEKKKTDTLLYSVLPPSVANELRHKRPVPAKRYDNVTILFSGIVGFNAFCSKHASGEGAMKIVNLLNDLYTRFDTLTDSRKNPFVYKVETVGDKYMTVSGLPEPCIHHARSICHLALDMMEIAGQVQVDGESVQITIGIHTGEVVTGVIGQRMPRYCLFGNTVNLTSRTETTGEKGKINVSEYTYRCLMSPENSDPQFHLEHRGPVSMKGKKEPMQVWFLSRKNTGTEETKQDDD
T2 sequence (Q02108 1-690 partner): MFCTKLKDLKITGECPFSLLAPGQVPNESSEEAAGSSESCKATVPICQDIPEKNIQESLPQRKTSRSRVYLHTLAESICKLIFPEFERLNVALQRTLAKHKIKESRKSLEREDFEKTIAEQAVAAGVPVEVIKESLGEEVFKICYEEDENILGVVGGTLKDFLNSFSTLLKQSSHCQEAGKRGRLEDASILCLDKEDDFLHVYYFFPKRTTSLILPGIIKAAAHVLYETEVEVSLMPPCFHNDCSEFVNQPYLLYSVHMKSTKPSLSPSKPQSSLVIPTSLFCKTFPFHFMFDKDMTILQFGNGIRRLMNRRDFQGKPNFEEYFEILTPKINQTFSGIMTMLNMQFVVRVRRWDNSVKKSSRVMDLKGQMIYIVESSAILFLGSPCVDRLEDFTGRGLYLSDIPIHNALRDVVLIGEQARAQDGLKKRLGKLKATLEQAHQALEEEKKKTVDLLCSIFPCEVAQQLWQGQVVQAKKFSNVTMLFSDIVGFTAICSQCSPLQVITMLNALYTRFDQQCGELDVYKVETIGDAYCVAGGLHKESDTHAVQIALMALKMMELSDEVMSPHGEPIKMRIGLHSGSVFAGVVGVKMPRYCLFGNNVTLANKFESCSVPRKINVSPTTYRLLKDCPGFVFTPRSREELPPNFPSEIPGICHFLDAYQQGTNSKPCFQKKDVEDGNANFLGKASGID
Procedure: Sf9 cells were co-infected with baculoviruses expressing human sGCa1 and mutant sGCβ1H105F. Forty-eight hours post-infection, the cells were treated with vehicle, NO donor, sGC stimulator, sGC activator or combination in 2 ml final volume of 10^6 cells per ml then the cells were incubated for 10 min at 27° C. The reaction was terminated by the addition of 0.1M of HCl, and cGMP was extracted on ice for 20 min. Cells were then sonicated to ensure complete lysis. The extract was then centrifuged and used for cGMP determination by an ELISA (Enzo Life Sciences).
Forty-eight hours post-infection, the cells were treated with vehicle, NO donor, sGC stimulator, sGC activator or combination in 2 ml final volume of 10^6 cells per ml and subsequently, the cells were incubated for 10 minutes at 27° C. The reaction was terminated by the addition of 0.1M of HCl, and cGMP was extracted on ice for 20 minutes. Cells were then sonicated to ensure complete lysis. The obtained cell extract was then centrifuged and used for cGMP determination by an ELISA. […] In the absence of any of the NO donor, the sGCs or the combination of these compounds, no cGMP synthesis is detected. It is now for the first time shown by the inventors that apo-sGC is still activatable even in the absence of an sGC activator known in the art. The presence of the sGCs facilitates NO binding to a secondary, heme-independent NO binding-site, and in addition, presence of an NO donor acts synergistically, when cGMP production is considered. Due to the invention, it is now made possible to treat patients with an sGCs, resulting in cGMP formation, under conditions wherein treatment with sGC activators has no effect at all or a too small effect, e.g. under conditions of ischemia, neonatal asphyxia, stroke, hypoxia, acute respiratory distress syndrome, asthma, oxidative (organ and/or tissue and/or cell) damage, etc. The invention provides a new treatment modality for these patients, which are often not sensitive (enough) for sGCa treatment. […] C.

effect of BAY 58-2667 on sGC activity in the presence of BAY 41-2272 ([2]; 0.3 μM BAY 58-2667 + 10 μM BAY 41-2272, fold stimulation versus basal activity (FIG. 1))	sGC activity, response to compound alone ([2]; lung homogenates of apo-sGC mice, compound alone)	potentiation of BAY 58-2667 by BAY 41-2272 ([2]; lung homogenates of apo-sGC mice, maximal efficiency in the nano-molar range)	SMILES	maximal relaxation, BAY 58-2667 combined with BAY 41-2272 ([1]; 0.0003 μM BAY 58-2667 + 0.1 μM BAY 41-2272 (FIG. 2))	maximal relaxation, BAY 58-2667 combined with BAY 41-2272 ([1]; 0.001 μM BAY 58-2667 + 0.1 μM BAY 41-2272 (FIG. 3))	maximal relaxation, BAY 58-2667 combined with BAY 41-2272 ([1]; 0.003 μM BAY 58-2667 + 0.1 μM BAY 41-2272 (FIG. 4))	cGMP formation, NO donor only [3]
potentiated	fully responsive	potentiation	O=C(O)CCCCN(CCc1ccccc1OCc1ccc(CCc2ccccc2)cc1)Cc1ccc(C(=O)O)cc1 [BAY 58-2667]	Super-additive effects	Super-additive effects	Super-additive effects	–
–	–	–	NCCN(CCN)/[N+]([O-])=N/O [DETA-NONOate]	–	–	–	hardly produced any cGMP; also recorded: no effect on cGMP formation
